The conditions of the data set: in vivo.

The text below walks through data of paper PMC9686516, “Pharmacokinetic Characteristics of Nebulized Colistimethate Sodium Using Two Different Types of Nebulizers in Critically Ill Patients with Ventilator-Associated Respiratory Infections” (Antibiotics, 2022).

Experimental: Subjects were medically followed during the nebulization phase and the post-nebulization period for the development of side effects, especially those related to the respiratory system. In cases of significant hypoxemia and/or bronchospasm, the nebulization and lavage processes were suspended, and the patient was treated as clinically indicated.

As for colistimethate sodium [CMS], the “deterioration of oxygenation during the nebulization” value is recorded as “no instances of clinically important deterioration of oxygenation”.
